Like-named read-outs stand apart in the source and are kept apart here.

Test in data set [1]: not given
The source holds these as a separate data set.

Data set [2] has as its target His-tagged recombinant human TrkA (cytoplasmic domain) (Homo sapiens (Human), UniProt P04629). In words: TrkA Binding Assay (LanthaScreen Eu Kinase Binding Assay). How it is done:
The ability of a compound to bind to TrkA was measured by Invitrogen's LanthaScreen™ Eu Kinase Binding Assay. […] After a 60-minute incubation at 22° C., the reaction was measured using the EnVision via TR-FRET dual wavelength detection, and the POC was calculated from the emission ratio. The compound dose response data was fit to a 4-parameter logistic model and IC50 was defined as the concentration of compound at 50 POC.

For data set [3], the target named is histidine-tagged recombinant human TrkA, cytoplasmic domain (Homo sapiens (Human), UniProt P04629). In words: TrkA ELISA Assay. Also: 2.5 nM TrkA. It counts as biochemical. Particulars: read-out: TrkA Elisa Enzyme Assay IC50. The protocol:
An enzyme-linked immunosorbant assay (ELISA) was used to assess TrkA kinase activity in the presence of inhibitors. Immulon 4HBX 384-well microtiter plates (Thermo part #8755) were coated with a 0.025 mg/mL solution of poly (Glu, Ala, Tyr; 6:3:1; Sigma P3899). […] The assay buffer consisted of 25 mM MOPS pH 7.5, 0.005% (v/v) Triton X-100 and 5 mM MgCl2. The reaction mixture was removed from the plate by washing with PBS containing 0.1% (v/v) Tween 20. The phosphorylated reaction product was detected using 0.2 μg/mL of a phosphotyrosine specific monoclonal antibody (clone PY20) conjugated to horseradish peroxidase in conjunction with the TMB Peroxidase Substrate System (KPL). After the addition of 1M phosphoric acid, the chromogenic substrate color intensity was quantitated via absorbance at 450 nm. IC50 values were calculated using either a 4 or 5-parameter logistic curve fit.
Table 1 provides averaged IC50 values for compounds of the invention when tested in this assay.

Sequence of His-tagged recombinant human TrkA (cytoplasmic domain) (P04629 440-796): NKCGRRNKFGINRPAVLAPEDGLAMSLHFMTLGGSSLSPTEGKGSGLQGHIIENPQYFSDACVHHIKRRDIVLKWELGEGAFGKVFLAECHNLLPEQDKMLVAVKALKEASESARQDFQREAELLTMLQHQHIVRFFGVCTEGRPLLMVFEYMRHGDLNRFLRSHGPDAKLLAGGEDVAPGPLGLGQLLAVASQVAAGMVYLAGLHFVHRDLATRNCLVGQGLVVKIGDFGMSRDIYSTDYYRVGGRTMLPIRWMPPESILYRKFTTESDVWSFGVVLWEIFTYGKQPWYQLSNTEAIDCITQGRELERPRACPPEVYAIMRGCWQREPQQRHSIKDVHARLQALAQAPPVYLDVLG
Sequence of histidine-tagged recombinant human TrkA, cytoplasmic domain (P04629 440-796): as above

Take `C[C@@H]1CNC(=O)c2cnn3ccc(nc23)N2CCC[C@@H]2c2cc(F)cn(c2=O)C1` [Example 34, (6R,13R)-9-fluoro-13-methyl-2,11,15,19,20,23-hexaazapentacyclo [15.5.2.1^7,11.0^2,6.0^20,24]pentacosa-1(23),7,9,17(24),18,21-hexaene-16,25-dione]: under “from C[C@H](CN)Cn1cc(F)cc([C@H]2CCCN2c2ccn3ncc(C(=O)O)c3n2)c1=O, amide bond, 14-membered ring, HATU/DIEA, DMF, […], 3.0 h, 2 steps”, the ring closure, isolated yield turned out to be 10%. Moreover, the ring closure, yield of all isomers in data set [1] (from COC(=O)c1cnn2ccc(N3CCC[C@@H]3c3cc(F)cn(C[C@H](C)CN)c3=O)nc12, amide bond, HATU, DMF, […], 3.0 h, 2 steps) turned out to be 10%. Also, the IC50 in data set [2] fell in the range of 1 to 100 nM.

As to `O=C1NCCCn2cc(F)cc(c2=O)[C@H]2CCCN2c2ccn3ncc1c3n2` [Example 1, (6R)-9-fluoro-2,11,15,19,20,23-hexaazapentacyclo[15.5.2.1^7,11.0^2,6.0^20,24]pentacosa-1(23),7,9,17(24),18,21-hexaene-16,25-dione], under “from NCCCn1cc(F)cc([C@H]2CCCN2c2ccn3ncc(C(=O)O)c3n2)c1=O, amide bond, 14-membered ring, EDCI/HOBt/TEA, DMF/DCM 1:2, 26.7 mM, 6.0 h”, the ring closure, isolated yield was 39%. The ring closure, yield of all isomers in data set [1] (from NCCCn1cc(F)cc([C@H]2CCCN2c2ccn3ncc(C(=O)O)c3n2)c1=O, amide bond, EDCI/HOBt, DCM, 26.7 mM, 25.0 °C, 6.0 h) stood at 39%. For the same molecule, the IC50 in data set [3] and in data set [2] was 1 to 100 nM in each case.

In turn, `O=C1NC[C@H](O)Cn2cc(F)cc(c2=O)[C@H]2CCCN2c2ccn3ncc1c3n2` [Example 5, (6R,13S)-9-fluoro-13-hydroxy-2,11,15,19,20,23-hexaazapentacyclo-[15.5.2.1^7,11.0^2,6.0^20,24]pentacosa-1(23),7,9,17(24),18,21-hexaene-16,25-dione] returned a ring closure, isolated yield (from O=C(NC[C@H](O)CCl)c1cnn2ccc(N3CCC[C@@H]3c3cc(F)c[nH]c3=O)nc12, other bond, 14-membered ring, Cs2CO3, DMF, […], 85.0 °C, 2.0 h) of 12%. In data set [1] (from O=C(NC[C@H](O)CCl)c1cnn2ccc(N3CCC[C@@H]3c3cc(F)c[nH]c3=O)nc12, amine bond, Cs2CO3, DMF, […], 85.0 °C, 2.0 h), this molecule yielded a ring closure, yield of all isomers of 27%. The concentration for half-maximal inhibition (IC50) in data set [3] and in data set [2] was 1 to 100 nM in each case.

Molecule `O=C1Nc2ccnn2CCOc2ncc(F)cc2[C@H]2CCCN2c2ccn3ncc1c3n2` [Example 38, (6R)-9-fluoro-13-oxa-2,11,16,17,21,25,26,29-octaazahexacyclo [21.5.2.0^2,6.0^7,12.0^16,20.0^26,30]triaconta-1(29),7,9,11,17,19,23(30),24,27-nonaen-22-one] displayed a ring closure, isolated yield (from O=C(Nc1ccnn1CCO)c1cnn2ccc(N3CCC[C@@H]3c3cc(F)cnc3O)nc12, ether bond, 15-membered ring, DEAD/PPh3, THF, 14.3 mM, 2 steps) of 1.5%. In addition, the ring closure, yield of all isomers in data set [1] (from COc1ncc(F)cc1[C@H]1CCCN1c1ccn2ncc(C(=O)Nc3ccnn3CCO[Si](c3ccccc3)(c3ccccc3)C(C)(C)C)c2n1, ether bond, DEAD/PPh3, THF, 14.25 mM, 25.0 °C, 18.0 h, 2 steps) came out at 1.5%. For the same molecule, the IC50 in data set [2] is 1 to 100 nM.
